From patent US9516824B2, “Method for modulating the number of archesporial cells in a developing anther” (The Board of Trustees of the Leland Stanford Junior …, priority 2012, dated 2016)
“Also recorded” adds a separate entry of the source.

Key:
maize anthers [1] = assay: Oxygen tension / ROS manipulation of the tassel airspace (gas by hose or needle, chemical injection): locule cell counts and SPL/EN bilayer progression by confocal imaging; settings: for SPL/EN bilayer (somatic niche) formation: gas treatment by hose or needle, 24 or 48 h; for peripheral somatic cell counts: late stages after 48 hour gas exposure; for AR specification / AR cell counts compared to puncture controls: injected into tassel airspace: 1 mM H2O2, 10 mM KI, 200 μM PTIO, 48 h prior to dissection; for AR specification / AR cell counts compared to puncture controls / somatic bilayer formation / development / AR morphological differentiation: 100 μM L-NNA, 20 μM SNP; for somatic bilayer formation / development: injected: 1 mM H2O2, 200 μM PTIO, compared to puncture control and untreated; for peripheral counts compared to needle puncture control / total L2 counts compared to needle puncture control: injection of 1 mL of 1 mM H2O2 or 10 mM KI; for AR morphological differentiation: injected: 200 μM PTIO
Procedure: Fertile W23 inbred anthers were stained with propidium iodide and imaged in Z-stack using a Leica SP5 confocal microscope (6). The ontogeny of locular cell types was cataloged over ˜2.5 days as anthers grew in length from 100 to 300 μm. […] The morphological characteristics of pre-meiotic cells are well established (18).
N2 or O2 gas was administered through hoses threaded into the leaf whorl (FIG. 15B). […] Alternatively, nitrogen, oxygen, or compressed air (20% O2) were administered by connecting gas lines to a needle inserted into the tassel airspace (FIGS. 15, C and D). In all experiments, a low flow of gas was administered over a 24 (A619) or 48 hour period (W23). Total locule cells (FIGS. 2, B, H, and M), peripheral somatic cells (FIGS. 2, C, I, and N), and central AR cells (FIGS. 2, D, J, and O) were quantified.
Confocal imaging, and EdU and PI staining were performed as described previously (6). Oxygen probe was an Oxygraph Tx3 (NTH-Pst1-L5-NS40-0.8-YOP) obtained from Presens (Regensburg, Germany). All chemicals were obtained from Sigma Chemical Co. (St. Louis, Mo.) and dissolved in water at the indicated molarities and injected using a 26 gauge needle into the airspace surrounding the immature tassel.

maize anthers [2] = assay: Ectopic archesporial (AR) cell formation after reducing or oxidizing treatments; format: in vivo; settings: for ectopic AR location by CT: internal (near or in the CT and VT); for # having ectopic AR: number of anthers; for ectopic AR location by EPI: superficial (near or on the EPI)
[3] = fertile, needle trial, 48 h gas treatment
[4] = fertile genotype, listed as N2 (direct)
[5] = fertile genotype, listed as N2 (hose)
[6] = fertile genotype, listed as O2 (direct)
[7] = fertile genotype, listed as O2 (hose)

SMILES: N#N [N2, nitrogen]
- AR count (treatment effect) (maize anthers [1]; fertile genotype): extra
- SPL/EN timing (treatment effect) (maize anthers [1]; fertile genotype): early
- AR specification and AR cell counts compared to untreated fertile anthers (maize anthers [1]; fertile, all three gas protocols (hose 48 h W23, hose 24 h A619, needle)): early specification and excess AR cells
- AR:total L2 ratio (maize anthers [1]; fertile, gas treatment): elevated ratios
- SPL/EN bilayer (somatic niche) formation (maize anthers [1]; fertile): formed early; also recorded: precocious bilayer formation
- central AR as fraction of total L2 cells (maize anthers [1]; fertile, gas treatment, early stages): up to 25%
- peripheral somatic cell counts (maize anthers [1]; fertile): increased peripheral somatic cell counts
- AR counts (maize anthers [1]; [3]): Excess presumptive AR cells
- AR count (treatment effect) (maize anthers [1]; mac1 genotype): extra
- AR count (treatment effect) (maize anthers [1]; msca1 genotype): none
- AR per event (average count of ectopic AR cells in each instance) (maize anthers [2]; fertile genotype): 5
- ectopic AR location by CT (maize anthers [2]; fertile genotype): 0
- # having ectopic AR (maize anthers [2]; [4]): 4
- # having ectopic AR (maize anthers [2]; [5]): 0
- ectopic AR location by EPI (maize anthers [2]; [4]): 4
- ectopic AR location by EPI (maize anthers [2]; [5]): 0
- ectopic AR formation (maize anthers [2]; hose protocol): did not cause ectopic AR in any anthers
- AR per event (average count of ectopic AR cells in each instance) (maize anthers [2]; mac1 genotype): 3
- ectopic AR location by CT (maize anthers [2]; mac1 genotype): 2
- # having ectopic AR (maize anthers [2]; mac1 genotype): 7
- ectopic AR location by EPI (maize anthers [2]; mac1 genotype): 5
- ectopic AR location by CT (maize anthers [2]; msca1 genotype): 0
- # having ectopic AR (maize anthers [2]; msca1 genotype): 0
- ectopic AR location by EPI (maize anthers [2]; msca1 genotype): 0

SMILES: OO [H2O2, hydrogen peroxide]
- AR count (treatment effect) (maize anthers [1]; fertile genotype): fewer
- SPL/EN timing (treatment effect) (maize anthers [1]; fertile genotype): delayed
- AR specification / AR cell counts compared to puncture controls (maize anthers [1]): lowered AR cell counts
- somatic bilayer formation / development (maize anthers [1]): inhibited subsequent somatic bilayer formation
- peripheral counts compared to needle puncture control (maize anthers [1]): greatly reduced
- total L2 counts compared to needle puncture control (maize anthers [1]): greatly reduced
- AR count (treatment effect) (maize anthers [1]; mac1 genotype): extra
- ectopic AR location by CT (maize anthers [2]; fertile genotype): 0
- # having ectopic AR (maize anthers [2]; fertile genotype): 0
- ectopic AR location by EPI (maize anthers [2]; fertile genotype): 0
- ectopic AR location by CT (maize anthers [2]; mac1 genotype): 0
- # having ectopic AR (maize anthers [2]; mac1 genotype): 0
- ectopic AR location by EPI (maize anthers [2]; mac1 genotype): 0
- AR specification in msca1 anthers (maize anthers [2]): lacked AR
- AR per event (average count of ectopic AR cells in each instance) (maize anthers [2]; msca1 genotype): 2
- niche - forming (periclinal divisions generating EN/SPL-like bilayer around ectopic AR) (maize anthers [2]; msca1 genotype): yes
- ectopic AR location by CT (maize anthers [2]; msca1 genotype): 0
- # having ectopic AR (maize anthers [2]; msca1 genotype): 0
- ectopic AR location by EPI (maize anthers [2]; msca1 genotype): 0

SMILES: N=C(NCCC[C@H](N)C(=O)O)N[N+](=O)[O-] [L-NNA, N^G-nitro-L-Arginine]
- AR count (treatment effect) (maize anthers [1]; fertile genotype): fewer
- SPL/EN timing (treatment effect) (maize anthers [1]; fertile genotype): delayed
- AR specification / AR cell counts compared to puncture controls (maize anthers [1]): slightly repressed; also recorded: slightly suppressed AR counts
- AR morphological differentiation (maize anthers [1]): slowed the morphological differentiation of central AR cells; also recorded: delayed AR morphological differentiation
- somatic bilayer formation / development (maize anthers [1]): dramatically delayed
- AR count (treatment effect) (maize anthers [1]; mac1 genotype): extra
- AR per event (average count of ectopic AR cells in each instance) (maize anthers [2]; fertile genotype): 2
- niche - forming (periclinal divisions generating EN/SPL-like bilayer around ectopic AR) (maize anthers [2]; fertile genotype): yes
- ectopic AR location by CT (maize anthers [2]; fertile genotype): 1
- # having ectopic AR (maize anthers [2]; fertile genotype): 1
- ectopic AR location by EPI (maize anthers [2]; fertile genotype): 0
- ectopic AR location by CT (maize anthers [2]; mac1 genotype): 0
- # having ectopic AR (maize anthers [2]; mac1 genotype): 0
- ectopic AR location by EPI (maize anthers [2]; mac1 genotype): 0
- AR specification in msca1 anthers (maize anthers [2]): lacked AR
- ectopic AR location by CT (maize anthers [2]; msca1 genotype): 0
- # having ectopic AR (maize anthers [2]; msca1 genotype): 0
- ectopic AR location by EPI (maize anthers [2]; msca1 genotype): 0

SMILES: O=O [O2, oxygen]
- AR count (treatment effect) (maize anthers [1]; [6]): extra
- SPL/EN timing (treatment effect) (maize anthers [1]; [6]): delayed
- AR count (treatment effect) (maize anthers [1]; [7]): fewer
- SPL/EN timing (treatment effect) (maize anthers [1]; [7]): late
- SPL/EN bilayer (somatic niche) formation (maize anthers [1]; fertile): delayed
- AR specification (maize anthers [1]; fertile, hose gas treatment): repressed AR specification
- AR counts (maize anthers [1]; fertile, hose, 24 hour exposure): significantly fewer AR than either untreated or N2
- central AR counts (maize anthers [1]; fertile, hose, 48 hour treatment): far lower than N2
- peripheral somatic cell counts (maize anthers [1]; fertile): increased peripheral somatic cells in the late stages
- AR counts (maize anthers [1]; [3]): elevated in the needle trial, less than compressed air and dramatically less than nitrogen
- AR count (treatment effect) (maize anthers [1]; mac1 genotype): extra
- AR count (treatment effect) (maize anthers [1]; msca1 genotype): none
- AR per event (average count of ectopic AR cells in each instance) (maize anthers [2]; fertile genotype): 3.7
- niche - forming (periclinal divisions generating EN/SPL-like bilayer around ectopic AR) (maize anthers [2]; fertile genotype): ~half
- ectopic AR location by CT (maize anthers [2]; [6]): 12
- ectopic AR location by CT (maize anthers [2]; [7]): 0
- # having ectopic AR (maize anthers [2]; [6]): 18
- # having ectopic AR (maize anthers [2]; [7]): 0
- ectopic AR location by EPI (maize anthers [2]; [6]): 6
- ectopic AR location by EPI (maize anthers [2]; [7]): 0
- ectopic AR location by CT (maize anthers [2]; mac1 genotype): 0
- # having ectopic AR (maize anthers [2]; mac1 genotype): 0
- ectopic AR location by EPI (maize anthers [2]; mac1 genotype): 0
- ectopic AR location by CT (maize anthers [2]; msca1 genotype): 0
- # having ectopic AR (maize anthers [2]; msca1 genotype): 0
- ectopic AR location by EPI (maize anthers [2]; msca1 genotype): 0

SMILES: [I-].[K+] [KI]
- AR:total L2 ratios (maize anthers [1]; 10 mM KI injected): increased AR:total L2 ratios
- AR count (treatment effect) (maize anthers [1]; fertile genotype): extra
- SPL/EN timing (treatment effect) (maize anthers [1]; fertile genotype): early
- AR specification / AR cell counts compared to puncture controls (maize anthers [1]): dramatically promoted AR specification
- peripheral counts compared to needle puncture control (maize anthers [1]): did not alter
- total L2 counts compared to needle puncture control (maize anthers [1]): did not alter
- AR count (treatment effect) (maize anthers [1]; mac1 genotype): extra
- AR count (treatment effect) (maize anthers [1]; msca1 genotype): extra
- AR per event (average count of ectopic AR cells in each instance) (maize anthers [2]; fertile genotype): 7
- ectopic AR location by CT (maize anthers [2]; fertile genotype): 0
- # having ectopic AR (maize anthers [2]; fertile genotype): 2
- ectopic AR location by EPI (maize anthers [2]; fertile genotype): 2
- # having ectopic AR (maize anthers [2]; mac1 genotype): 0
- ectopic AR location by EPI (maize anthers [2]; mac1 genotype): 0
- AR specification in msca1 anthers (maize anthers [2]): caused AR specification
- AR per event (average count of ectopic AR cells in each instance) (maize anthers [2]; msca1 genotype): 3
- # having ectopic AR (maize anthers [2]; msca1 genotype): 6
- ectopic AR location by EPI (maize anthers [2]; msca1 genotype): 5
- percent of treated anthers having AR cells (maize anthers [2]; msca1 mutant, 20 μM SNP or KI injected): 9.5%

SMILES: CC1(C)N([O])C(c2ccccc2)=[N+]([O-])C1(C)C [PTIO, 2-Phenyl-4,4,5,5-tetramethylimidazoline-1-oxyl-3-oxide]
- AR count (treatment effect) (maize anthers [1]; fertile genotype): fewer
- SPL/EN timing (treatment effect) (maize anthers [1]; fertile genotype): delayed
- AR specification / AR cell counts compared to puncture controls (maize anthers [1]): slightly repressed; also recorded: slightly suppressed AR counts
- AR morphological differentiation (maize anthers [1]): slowed the morphological differentiation of central AR cells; also recorded: delayed AR morphological differentiation
- somatic bilayer formation / development (maize anthers [1]): dramatically delayed
- AR count (treatment effect) (maize anthers [1]; mac1 genotype): extra
- AR per event (average count of ectopic AR cells in each instance) (maize anthers [2]; fertile genotype): 5
- niche - forming (periclinal divisions generating EN/SPL-like bilayer around ectopic AR) (maize anthers [2]; fertile genotype): yes
- ectopic AR location by CT (maize anthers [2]; fertile genotype): 3
- # having ectopic AR (maize anthers [2]; fertile genotype): 4
- ectopic AR location by EPI (maize anthers [2]; fertile genotype): 1
- ectopic AR location by CT (maize anthers [2]; mac1 genotype): 0
- # having ectopic AR (maize anthers [2]; mac1 genotype): 0
- ectopic AR location by EPI (maize anthers [2]; mac1 genotype): 0
- AR specification in msca1 anthers (maize anthers [2]): lacked AR
- ectopic AR location by CT (maize anthers [2]; msca1 genotype): 0
- # having ectopic AR (maize anthers [2]; msca1 genotype): 0
- ectopic AR location by EPI (maize anthers [2]; msca1 genotype): 0

SMILES: c1ccc2c(c1)[I+]c1ccccc1-2 [DPI, Diphenylene iodonium]
- effect on tassel tissues (maize anthers [1]; injected into tassel airspace): complete degeneration of the tassel tissues
